From patent US20080009538A1, “Methods and compositions for the treatment of urinary incontinence” (priority 2005, published 2008) come the findings set out here.

As usually defined, the pKi is −log10 of the Ki, conventionally taken in molar units. The inhibition is how much of the control response was suppressed. As usually defined, the pIC50 is the negative decadic logarithm of the IC50, by convention in mol/L.

pIC50, pKi: −log10 of the molar value. Counter-ions that a name gives are not always drawn. Like-named read-outs stand apart in the source and are kept apart here.

One data set relates to Adult cats. The data set can be described thus: Dilute acetic acid bladder model in anesthetized cats (cystometrogram). It is filed as in vivo, cat. Conditions: i.v., during 0.5% acetic acid infusion. How it is done:
Adult cats (male and female) were anesthetized with α-chloralose (50-75 mg/kg i.v.) A cannula was inserted into the trachea to maintain a clear airway. One catheter was inserted into the carotid artery to measure systemic blood pressure, and another was placed into the radial vein for injecting bicifadine hydrochloride. All doses of bicifadine hydrochloride were based on body weight.
Electromyography electrodes were placed in the periurethral striated muscle. A catheter was inserted through the dome of the bladder and was used to infuse either saline for the control or dilute (0.5%) acetic acid into the test cats. The catheter was also used to record bladder pressure during each voiding cystometrogram. After bladder capacity was established using the saline infusion, cysometrograms were taken after an infusion of dilute acetic acid and changes in bladder capacity were recorded. […] Fluid release during micturition was measured by collecting the fluid in a cylinder attached to a force transducer.
On reaching micturition threshold, acetic acid infusion of the bladder was continued, resulting in rhythmic micturition contractions throughout the infusion period. During this time of rhythmic bladder activity, either vehicle as the control or bicifadine hydrochloride was administered. Five minutes after each administration of bicifadine hydrochloride, the bladder was emptied and another cystometrogram was performed. This procedure was repeated with increasing doses of bicifadine hydrochloride.
Under control conditions, rapid increases in intravessicular pressure were recorded after infusion of 5.3±0.6 ml saline into an initially empty bladder. Bladder capacity was reached after infusion of approximately 10.5 ml of saline. When acetic acid was infused, bladder capacity was reduced by more than half. […] Normal time to contraction following instillation of saline into the bladder is approximately 1286 seconds.

The target of another data set is α1 adrenergic receptor. Nature of the data set: α1 adrenergic receptor [3H]prazosin binding, rat cerebral cortex preparation. The settings on record: [3H]prazosin 0.25 nM, 60 min at 22° C., read-out: Inhibition of radioligand binding, affinity (Ki).
Another data set concerns the target T1, 5-HT2A receptor (Homo sapiens, UniProt P28223).
T1 construct: expressed in transfected cells; host or cells: CHO cells
Nature of the data set: 5-HT2A receptor [3H]LSD binding screen, recombinant receptors in CHO cells. Conditions: [3H]LSD 1.2 nM, recombinant human 5-HT2A in CHO cells, 37° C., 30 min, read-out: inhibition of radioligand binding.

Data set [1] deals with T2, norepinephrine transporter protein (Homo sapiens, UniProt P23975).
T2 construct: expressed in transfected cells; host or cells: HEK 293 cells
T2 sequence (P23975 whole entry): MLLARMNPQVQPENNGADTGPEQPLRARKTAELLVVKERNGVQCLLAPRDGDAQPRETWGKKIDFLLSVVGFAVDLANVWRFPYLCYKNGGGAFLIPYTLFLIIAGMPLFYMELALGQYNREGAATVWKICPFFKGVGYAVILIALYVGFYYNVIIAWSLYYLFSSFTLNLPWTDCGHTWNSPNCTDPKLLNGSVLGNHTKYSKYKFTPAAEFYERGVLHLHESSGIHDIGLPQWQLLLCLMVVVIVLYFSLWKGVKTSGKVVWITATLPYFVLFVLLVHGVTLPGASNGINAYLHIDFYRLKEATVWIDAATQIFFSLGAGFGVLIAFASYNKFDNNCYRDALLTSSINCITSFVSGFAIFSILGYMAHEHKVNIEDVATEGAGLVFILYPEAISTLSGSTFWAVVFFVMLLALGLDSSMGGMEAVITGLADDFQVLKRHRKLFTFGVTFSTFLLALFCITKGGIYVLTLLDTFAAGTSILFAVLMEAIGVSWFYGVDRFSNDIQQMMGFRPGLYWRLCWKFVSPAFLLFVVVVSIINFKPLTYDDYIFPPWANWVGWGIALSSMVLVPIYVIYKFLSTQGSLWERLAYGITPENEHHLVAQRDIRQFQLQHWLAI
The data set can be described thus: [3H]norepinephrine uptake in HEK 293 cells expressing the transporter. It is filed as cell-based. Conditions: recombinant human norepinephrine transporter, 20 nM [3H]norepinephrine, read-out: inhibition of [3H]Norepinephrine uptake (IC50). On the procedure: (§1) The effects bicifadine on [^3H]norepinephrine and [^3H]serotonin uptake were measured in HEK 293 cells expressing the recombinant human forms of the norepinephrine and serotonin transporter proteins, respectively using a modification of the techniques described by Eschleman, et al., (1999). Cells were grown on 150-mm-diameter tissue culture dishes until confluent. Medium was removed from the plates and the cells were washed twice with Ca^2+, Mg^2+-free PBS. Fresh Ca^2+, Mg^2+-free PBS (2.5 ml) was then added to each plate and the plates were placed in a 25° C. water bath for 5 min. The cells were then gently scraped from the plates, and cell clusters were separated by trituration with a pipette for 5 to 10 aspirations and ejections. Aliquots (50 μl) of the suspended cells were then added to assay tubes (in triplicate) containing various concentrations of bicifadine and Krebs-HEPES assay buffer in a final assay volume of 0.5 ml. Following a 10-min pre-incubation in a 25° C. water bath, [^3H]norepinephrine or serotonin (20 nM final concentration) was added, and the assay was incubated for 10 min. The reaction was terminated by filtration through Wallac filtermat A filters presoaked in 0.05% polyethylenimine, using a Tomtec cell harvester. Scintillation fluid was then added to each filtered spot, and radioactivity remaining on the filters was determined by scintillation counting. […]

In data set [2] the target is T3, serotonin transporter protein (Homo sapiens, UniProt P31645).
T3 construct: expressed in transfected cells; host or cells: HEK 293 cells
T3 sequence (P31645 whole entry): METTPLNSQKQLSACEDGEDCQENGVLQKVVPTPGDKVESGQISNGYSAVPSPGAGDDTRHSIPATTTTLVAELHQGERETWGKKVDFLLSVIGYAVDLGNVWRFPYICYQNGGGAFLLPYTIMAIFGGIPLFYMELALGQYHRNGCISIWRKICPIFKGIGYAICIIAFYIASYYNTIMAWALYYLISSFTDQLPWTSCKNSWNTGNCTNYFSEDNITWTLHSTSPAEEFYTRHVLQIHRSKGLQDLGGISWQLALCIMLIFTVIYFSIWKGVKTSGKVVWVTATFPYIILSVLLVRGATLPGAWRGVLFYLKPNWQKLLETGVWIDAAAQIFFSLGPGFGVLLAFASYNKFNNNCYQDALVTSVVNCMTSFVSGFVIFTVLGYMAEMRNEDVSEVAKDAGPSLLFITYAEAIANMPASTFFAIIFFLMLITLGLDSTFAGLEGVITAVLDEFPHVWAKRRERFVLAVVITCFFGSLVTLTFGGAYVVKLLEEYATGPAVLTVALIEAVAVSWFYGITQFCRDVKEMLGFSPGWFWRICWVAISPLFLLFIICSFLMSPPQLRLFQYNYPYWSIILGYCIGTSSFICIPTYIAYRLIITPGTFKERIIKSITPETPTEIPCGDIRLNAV
The data set can be described thus: [3H]serotonin uptake in HEK 293 cells expressing the transporter. In kind it is cell-based. Conditions: recombinant human serotonin transporter, 20 nM [3H]serotonin, read-out: inhibition of [3H]Serotonin uptake (IC50). How it is done: as §1

For data set [3], the system named is Female rats. Nature of the data set: Dilute acetic acid model in rats (filling cystometry). It is filed as in vivo, rat. The settings on record: intraduodenal, 0.25% acetic acid continuous irritation. From the text: Additional animal models for evaluating efficacy of bicifadine as an anti-incontinence drug include a widely accepted rat model predictive of anti-incontinence drug activity in humans. Female rats (250-275 g BW, n=8) are anesthetized with urethane (1.2 g/kg) and a saline-filled catheter is inserted into the proximal duodenum for intraduodenal drug administration. A flared-tipped catheter is inserted into the bladder dome, via a midline lower abdominal incision, for bladder filling and pressure recording, and secured by ligation. Electromyography elctrodes are inserted into the external urethral sphincter percutaneously.
In the control, saline is continuously infused at a rate of about 0.055 ml/min via the bladder filling catheter for about 60 minutes to obtain a baseline of lower urinary tract activity. […] Bladder capacity (ml) is calculated as the flow rate of the bladder filling solution […] multiplied by the elapsed time between commencement of bladder filling and occurrence of bladder contraction (min).
Following the control period, a 0.25% acetic acid solution in saline is infused into the bladder to induce bladder irritation. […] Following injection of the third vehicle control, bladder capacity is again measured using acetic acid to fill the bladder. […]

Another data set concerns Adult female guinea pigs. The data set can be described thus: Urethral function in guinea pigs (external urethral sphincter EMG). In kind it is in vivo, guinea pig. The settings on record: intravenous, normal bladder filling, versus no drug or vehicle. The source says:
Yet another animal model for evaluating efficacy of bicifadine as an anti-incontinence drug is a widely accepted guinea pig model, also predictive of anti-incontinence drug activity in humans. Adult female guinea pigs, weighing 620-707 g, are initially anesthetized with halothane and maintained with urethane. A cannula is inserted into the trachea, a jugular vein and a carotid artery for respiratory ventilation, injection of the test compound and monitoring of the blood pressure, respectively. A midline laporatomy is performed to expose the urinary bladder and a cystometry tube is inserted through a small incision in the dome of the bladder. The abdominal wound is closed tightly around the externalized cystometry tube, which is connected to an infusion pump and pressure transducer, for filling the bladder and recording intravesical pressure. Electromyographic electrodes are inserted into the striated muscles of the external urethral sphincter.
The bladder is filled at a rate of 150 μl/min^−1 with saline until initiation of a micturition reflex. […]
The bladder is then filed to 75% of the threshold volume with saline and weights are positioned on the ventral surface of the abdomen of the animal just rostral to the position of the bladder. […] Electromyographic activity and intravesical pressure are recorded while weights are applied to the abdomen. […]

The test system of data set [4] is Female rats. The data set can be described thus: Neurogenic overactive bladder in spinal cord transected rats. In kind it is in vivo, rat. The settings on record: versus no drug or vehicle. On the procedure:
The spinal cord is transected and the intervening space filled with Gelfoam. The overlying muscle layers and skin are sequentially closed with suture, and the animals are treated with antibiotic (100 mg/kg ampicillin s.c.) Residual urine is expressed prior to returning the animals to their cages, and thereafter 3 times daily until terminal experimentation four weeks later. On the day of the experiment, the animals are anesthetized with isofluorane (4%) and a jugular catheter is inserted for access to the systemic circulation and tunneled subcutaneously to exit through the midscapular region. Via a midline abdominal incision, a catheter with a fire-flared tip is inserted into the dome of the bladder through a small cystotomy and secured by ligation for bladder filling and pressure recording. Electrodes are inserted percutaneously into the external urethral sphincter for electromyography readings. […]
Following a 60-90 minute control period of normal saline infusion (0.100-0.150 ml/min) to collect baseline continuous open cystometric data, the pump is turned off, the bladder is emptied, the pump turned back on, and bladder capacity is estimated by a filling cystometrogram. […] Following the third administration of vehicle control, bladder capacity is again measured through a cystometrogram. […] Bladder capacity is measured as described above at 20 minutes following each subsequent drug treatment.

The nature of data set [5]: Blood pressure in human subjects. It is filed as in vivo.
The target of a further data set is α2 adrenergic receptor. Nature of the data set: α2 adrenergic receptor [3H]RX 821002 binding, rat cerebral cortex preparation.

T1 sequence (P28223 whole entry): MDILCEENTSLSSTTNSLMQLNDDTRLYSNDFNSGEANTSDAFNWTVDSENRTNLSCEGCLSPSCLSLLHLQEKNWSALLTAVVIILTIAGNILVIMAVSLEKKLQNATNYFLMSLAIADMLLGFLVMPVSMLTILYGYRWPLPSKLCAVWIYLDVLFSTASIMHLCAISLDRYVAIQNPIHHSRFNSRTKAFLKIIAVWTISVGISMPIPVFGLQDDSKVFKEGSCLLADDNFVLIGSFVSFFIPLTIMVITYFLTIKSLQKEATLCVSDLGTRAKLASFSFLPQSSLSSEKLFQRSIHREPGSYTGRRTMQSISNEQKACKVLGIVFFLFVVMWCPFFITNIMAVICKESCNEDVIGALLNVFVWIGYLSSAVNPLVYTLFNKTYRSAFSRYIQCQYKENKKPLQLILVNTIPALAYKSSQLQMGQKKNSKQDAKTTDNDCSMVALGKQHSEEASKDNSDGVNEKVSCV
Description for α1 adrenergic receptor: At the end of 60 min, the assay was terminated by vacuum filtration and the amount of radioactivity deposited on the filter measured by scintillation counting.
(§2) Ki=inhibitory constant defined as IC50/L+KD; IC50=concentration of bicifadine HCl that inhibits 50% of the maximal response; L=concentration of radioligand added; KD, dissociation constant of the radioligand at equilibrium.
Description for α2 adrenergic receptor: This assay was conducted by incubating the rat cortex preparation with a 0.5 nM concentration of [^3H]RX 821002 for 30 min at 22° C. in the presence of either 0.1, 0.3, 1, 3, or 10 μM concentrations bicifadine HCl. Unlabelled (−)epinephrine (100 μM) was used to determine nonspecific binding. The assay was terminated by vacuum filtration, and the amount of radiolabeled receptor retained by the filter measured by scintillation counting. […] Recombinant human 5-HT2A receptors expressed in CHO cells were incubated with bicifadine HCl (0.1, 1 or 10 μM) and [^3H]LSD (1.2 nM) at 37° C. for 30 min (Bonhaus 1995). Serotonin (10 μM) was used to determine nonspecific binding.
as §2

For `Cc1ccc(C23CNCC2C3)cc1.Cl` (single isomer, unassigned; (+)) [(+)-bicifadine HCl, (+)-1-(p-Tolyl)-3-azabicyclo[3.1.0]hexane hydrochloride], in the data set on Adult cats, the bladder activity result was “pronounced inhibition of bladder activity”, the bladder capacity result is listed as “increased bladder capacity to near control conditions” and the “time to contraction (latency to bladder contraction)” value is “increased the time to contraction”.

For `Cc1ccc([C@]23CNC[C@H]2C3)cc1` (racemic) [Bicifadine HCl, (±)-1-(4-methylphenyl)-3-azabicyclo[3.1.0]hexane hydrochloride], the pKi at α1 adrenergic receptor is 6.00; at α2 adrenergic receptor (read-out: Inhibition of radioligand binding, affinity (Ki), [3H]RX 821002 0.5 nM, 30 min at 22° C., hydrochloride), 6.21; at α2 adrenergic receptor (read-out: Inhibition of radioligand binding, affinity (Ki), [3H]RX 821002 0.5 nM, 30 min at 22° C., listed as bicifadine, hydrochloride), 6.22. Besides, at 5-HT2A receptor, the inhibition at 10 µM turned out to be 82%. Also, the values for the pIC50 in data set [1] and in data set [2] were 7.26 and 6.93, respectively. Also, the bladder activity result in the data set on Adult cats is on record as “pronounced inhibition of bladder activity”. Also, the bladder capacity result was “increased bladder capacity to near control conditions” in the data set on Adult cats, “increase in bladder capacity” in the data set on Female rats [3] and “increase in bladder capacity” in the data set on Female rats [4]. The “time to contraction (latency to bladder contraction)” value in the data set with Adult cats was “increased the time to contraction”. Moreover, the “electromyographic activity of external urethral sphincter” value with Adult female guinea pigs is listed as “increase in electromyographic activity”. Further, the “alterations in blood pressure” value in [5] is “did not cause significant alterations in blood pressure”.
